Experimental data: patent US20030220396A1, “Method for treating ocular hypertension and glaucoma” (SUCAMPO AG, priority 2002, published 2003)

Assays:
Assay type in all cases: in vivo
[1] = tested on: intraocular pressure (IOP); experiment: IOP lowering after instillation of ophthalmic solution in white rabbit (Comparative Example); conditions: for ΔIOP · AUC0-6 h Mean ± S.E.: 0.05 w/v% solution, 35 μL/eye, in mmHg·h (unit assumed)
Protocol: (§1) In the following examples, the osmolarity was measured by means of OSMOMETER (Model OM-801, VOGEL) at room temperature.
Three kinds of ophthalmic solutions each containing 0.05 w/v% of test substance 2 (13,14-dihydro-15-keto-20-ethyl-PGF2αisopropyl ester), which is a 15-keto-prostaglandin compound having a linear structure at the end of the ω chain, were prepared and used. The osmolarity ratio of the solutions were adjusted to 0.3 (osmolarity: 86 mOsm), 0.7 (osmolarity: 200 mOsm) and 1.0 (osmolarity: 286 mOsm), respectively. Each of the test solutions (35 μL/eye) was instilled serially into one eye of a white rabbit with one-week intervals between the installations.

[2] = tested on: intraocular pressure (IOP); experiment: IOP lowering after instillation of ophthalmic solution in cynomolgus monkeys (Example 1); conditions: for ΔIOP · AUC0-24 h Mean ± S.E.: 0.001 w/v% solution, 30 μL/eye
Protocol: as §1
Two kinds of test ophthalmic solutions each containing 0.001 w/v% of test substance 1 (13,14-dihydro-15-keto-17-phenyl-18,19,20-trinor-PGF2αisopropyl ester), which is 15-keto-prostaglandin compound having a ring structure at the end of the ω chain were prepared. The osmolarity ratio of one solution was adjusted to 0.7 (osmolarity: 200 mOsm) and the other was adjusted to 1.0 (osmolarity: 286 mOsm). Nine cynomolgus monkeys were used for the example. One of the test solutions was instilled (30 μL/eye) into one eye of the monkey, and one week after, the other test solution was instilled (30 μL/eye) into the same eye.

[3] = tested on: intraocular pressure (IOP); experiment: IOP lowering after instillation of ophthalmic solution in cynomolgus monkeys (Example 2); conditions: for ΔIOP · AUC0-24 h Mean ± S.E.: 0.001 w/v% solution, 30 μL/eye, in mmHg·h (unit assumed)
Protocol: as §1
Three kinds of ophthalmic solutions each containing 0.001 w/v% of test substance 1 were prepared and used. The osmolarity ratio of the solutions were adjusted to 0.8 (osmolarity: 229 mOsm), 1.0 (osmolarity: 286 mOsm) and 1.3 (osmolarity: 372 mOsm) respectively. Eight cynomolgus monkeys were used for this example. Test solutions were instilled to the monkey in the same manner as Example 1, i.e. 30 μL/eye of each solution was serially instilled to same eye with one-week intervals between the instillations.

[4] = osmolarity ratio 1.0 (286 mOsm)

SMILES | ΔIOP · AUC0-6 h Mean ± S.E. ([1]; osmolarity ratio 0.3 (86 mOsm)) | ΔIOP · AUC0-6 h Mean ± S.E. ([1]; osmolarity ratio 0.7 (200 mOsm)) | ΔIOP · AUC0-6 h Mean ± S.E. [1, 4] | IOP lowering effect, comparison in words ([1]; osmolarity ratio 0.3, 0.7 and 1.0 compared, 0.05 w/v%) | ΔIOP · AUC0-24 h Mean ± S.E. ([2]; osmolarity ratio 0.7 (200 mOsm), in mmHg·h (unit assumed)) | ΔIOP · AUC0-24 h Mean ± S.E. ([2]; osmolarity ratio 1.0 (286 mOsm), p < 0.05 vs ratio 0.7, in mmHg·h (unit assumed)) | IOP lowering effect, comparison in words ([2]; osmolarity ratio 1.0 compared with osmolarity ratio 0.7, 0.001 w/v%) | ΔIOP · AUC0-24 h Mean ± S.E. ([3]; osmolarity ratio 0.8 (229 mOsm)) | ΔIOP · AUC0-24 h Mean ± S.E. [3, 4] | ΔIOP · AUC0-24 h Mean ± S.E. ([3]; osmolarity ratio 1.3 (372 mOsm)) | IOP lowering effect, comparison in words ([3]; osmolarity ratio 1.0 compared with osmolarity ratio 0.8 and 1.3, 0.001 w/v%)
CCCCCCCC(=O)CC[C@@H]1[C@@H](C/C=C\CCCC(=O)OC(C)C)[C@@H](O)C[C@H]1O [Test Substance 2, 13,14-dihydro-15-keto-20-ethyl-PGF2αisopropyl ester] | 18.9 ± 4.4 | 22.5 ± 5.1 | 20.3 ± 4.6 | substantially the same IOP lowering effect |  |  |  |  |  |  | 
CC(C)OC(=O)CCC/C=C\C[C@@H]1[C@@H](CCC(=O)CCc2ccccc2)[C@H](O)C[C@@H]1O [Test Substance 1, 13,14-dihydro-15-keto-17-phenyl-18,19,20-trinor-PGF2αisopropyl ester] |  |  |  |  | 22.8 ± 11.8 | 55.1 ± 10.7 | significantly greater IOP lowering effect | 41.1 ± 18.7 | 62.3 ± 19.3 | 37.9 ± 14.8 | greater IOP lowering effect
